Laboratory results reported in patent US4187373A, “Novel dihydrobenzanthracene derivatives” (American Cyanamid Company, priority 1978, dated 1980).
Where “and” joins values, the source holds several entries; their conditions need not be identical. Equal entries are not always repeated. Structures can show the parent of a compound that is named as a salt.

How the values were obtained:
[1] = system: lymphocytic leukemia P388; test: Lymphocytic Leukemia P388 Test; assay type: in vivo, mice
Protocol: The animals used are mice all of one sex, weighing a minimum of 17 g. and all within a 3 gram weight range. There are 5 or 6 animals per test group. The tumor transplant is by intraperitoneal injection of 0.1 ml. or 0.5 ml. of dilute ascitic fluid containing 10^6 cells of lymphocytic leukemia P388. The test compounds are administered intraperitoneally on days one, 5 and 9 (relative to tumor inoculation) at various doses. The animals are weighed and survivors are recorded on a regular basis for 30 days. The median survival time and the ratio of survival time for treated (T)/control (C) animals are calculated. […] The results of this test with representative compounds of the present invention appear in Table II below. The criterion for efficacy is T/C×100≥125%.

[2] = system: melanotic melanoma B16 tumor; test: Melanotic Melanoma B16; assay type: in vivo, C57BC/6 mice
Protocol: The animals used are C57BC/6 mice, all of the same sex, weighing a minimum of 17 g. and all within a 3 g. weight range. There are normally 10 animals per test group. A one-gram portion of melanotic melanoma B16 tumor is homogenized in 10 ml. of cold balanced salt solution and a 0.5 ml. aliquot of the homogenate is implanted intraperitoneally into each of the test mice. The test compounds are administered intraperitoneally on days one through 9 (relative to tumor inoculation) at various doses. The animals are weighed and survivors are recorded on a regular basis for 60 days. The median survival time and the ratio of survival time for treated (T)/control (C) animals are calculated. The positive control compound is 5-fluorouracil given as a 20 mg./kg. injection. The results of this test with a representative compound of the present invention appear in Table III below. The criterion for efficacy is T/C×100≥125%.

[3] = system: Enterococcus, SM 77-15; test: antibacterial activity in vitro, agar-dilution streak-plate technique; assay type: cell-based; conditions: SM7715, 37° C. for 18 hours, read-out: minimal inhibitory concentration (MIC)
Protocol: (§1) The antibacterial spectrum in terms of the concentration required to inhibit the growth of various typical bacteria was determined in a standard manner by the agar-dilution streak-plate technique. A Steers multiple inocula replicator was used with incubation at 37° C. for 18 hours in Mueller-Ninton agar. The results for 7,12-bis-(2-imidazolin-2-ylhydrazone)benz[a]anthracene-7,12-dicarboxaldehyde dihydrochloride, a typical compound of this invention, are set forth in Table I as the minimal inhibitory concentration (MIC) in micrograms per milliliter.

[4] = system: Staphylococcus aureus, OSU 75-2; test: as above; assay type: cell-based; conditions: OSU752, 37° C. for 18 hours, read-out: minimal inhibitory concentration (MIC)
Protocol: as §1

[5] = system: Staphylococcus aureus, Q 74-11; test: as above; assay type: cell-based; conditions: Q7411, 37° C. for 18 hours, read-out: minimal inhibitory concentration (MIC)
Protocol: as §1

[6] = system: Staphylococcus aureus, St. Paul (NYC 78-1); test: as above; assay type: cell-based; conditions: 37° C. for 18 hours, read-out: minimal inhibitory concentration (MIC)
Protocol: as §1

[7] = P388, positive control, dose 40 mg./kg.
[8] = P388, positive control, dose 60 mg./kg.
[9] = B16, positive control, dose 20 mg./kg.
[10] = P388, dose 0.78 mg./kg. intraperitoneally on days one, 5 and 9
[11] = P388, dose 1.56 mg./kg. intraperitoneally on days one, 5 and 9, dihydrochloride
[12] = P388, dose 3.12 mg./kg. intraperitoneally on days one, 5 and 9, dihydrochloride
[13] = P388, dose 6.25 mg./kg. intraperitoneally on days one, 5 and 9, dihydrochloride
[14] = P388, dose 12.5 mg./kg. intraperitoneally on days one, 5 and 9, dihydrochloride
[15] = P388, dose 25 mg./kg. intraperitoneally on days one, 5 and 9, dihydrochloride
[16] = B16, dose 0.2 mg./kg. intraperitoneally on days one through 9
[17] = B16, dose 0.5 mg./kg. intraperitoneally on days one through 9
[18] = B16, dose 1.5 mg./kg. intraperitoneally on days one through 9
[19] = B16, dose 3 mg./kg. intraperitoneally on days one through 9
[20] = P388, dose 1.56 mg./kg. intraperitoneally on days one, 5 and 9
[21] = P388, dose 3.12 mg./kg. intraperitoneally on days one, 5 and 9
[22] = P388, dose 6.25 mg./kg. intraperitoneally on days one, 5 and 9
[23] = P388, dose 12.5 mg./kg. intraperitoneally on days one, 5 and 9
[24] = P388, dose 25 mg./kg. intraperitoneally on days one, 5 and 9

SMILES	Median Survival [1, 10]	T/C × 100 (Percent) [1, 10]	Median Survival [1, 20]	T/C × 100 (Percent) [1, 20]	Median Survival [1, 21]	T/C × 100 (Percent) [1, 21]	Median Survival [1, 22]	T/C × 100 (Percent) [1, 22]	Median Survival [1, 23]	T/C × 100 (Percent) [1, 23]	further results
O=c1[nH]cc(F)c(=O)[nH]1 [5-Fluorouracil, 5-fluorouracil, reference compound]											Median Survival [1, 7]: 18 days and 18.5 days; T/C × 100 (Percent) [1, 7]: 164% and 154%; Median Survival [1, 8]: 12.5 days and 20.0 days; T/C × 100 (Percent) [1, 8]: 109% and 200%; Median Survival [2, 9]: 25.5 days; T/C × 100 (Percent) [2, 9]: 155%
C(=NNC1=NCCN1)C1c2ccccc2C(C=NNC2=NCCN2)c2c1ccc1ccccc21 (stereo not drawn) [Bis(2-imidazolin-2-ylhydrazone) of 7,12-dihydrobenz[a]anthracene-7,12-dicarboxaldehyde dihydrochloride]	13.0 days	130%									Median Survival [1, 11]: 13.5 days; T/C × 100 (Percent) [1, 11]: 135%; Median Survival [1, 12]: 16.5 days; T/C × 100 (Percent) [1, 12]: 165%; Median Survival [1, 13]: 16.5 days; T/C × 100 (Percent) [1, 13]: 165%; Median Survival [1, 14]: 17.5 days; T/C × 100 (Percent) [1, 14]: 175%; Median Survival [1, 15]: 17 days; T/C × 100 (Percent) [1, 15]: 170%
C(=NNC1=NCCN1)c1c2ccccc2c(C=NNC2=NCCN2)c2c1ccc1ccccc12 [Bis(2-imidazolin-2-ylhydrazone) of benz[a]anthracene-7,12-dicarboxaldehyde]											Median Survival [2, 16]: 22.0 days; T/C × 100 (Percent) [2, 16]: 133%; Median Survival [2, 17]: 25.0 days; T/C × 100 (Percent) [2, 17]: 152%; Median Survival [2, 18]: 30.5 days; T/C × 100 (Percent) [2, 18]: 185%; Median Survival [2, 19]: 31.0 days; T/C × 100 (Percent) [2, 19]: 188%
C(=NNC1=NCCN1)c1c2ccccc2c(C=NNC2=NCCN2)c2cc3ccccc3cc12 [Bis(2-imidazolin-2-ylhydrazone)-5,12-benz[b]anthracene dicarboxaldehyde dihydrochloride]	15.0 days	130%	15.5 days	135%	18.0 days	157%	18.5 days	161%	22.0 days	191%	
C(=NNC1=NCCN1)c1c2ccccc2c(C=NNC2=NCCN2)c2c1ccc1ccccc12 [Bis(2-imidazolin-2-ylhydrazone)-7,12-benz[a]anthracene dicarboxaldehyde dihydrochloride]	15.0 days	150%	16.0 days	160%	17.5 days	175%	19.0 days	190%	19.0 days	190%	MIC [3]: 8 µg/mL; MIC [4]: 16 µg/mL; MIC [5]: 8 µg/mL; MIC [6]: 8 µg/mL
C(=NNC1=NCCN1)C1c2ccccc2C(C=NNC2=NCCN2)c2c1ccc1ccccc21 (stereo not drawn) [Bis(2-imidazolin-2-ylhydrazone)-7,12-dihydro-benz[a]anthracene dicarboxaldehyde]			14.5 days	132%	14 days	127%	16 days	145%	18 days	164%	Median Survival [1, 24]: 20 days; T/C × 100 (Percent) [1, 24]: 182%
